According to US20240082183A1, “METHODS FOR PREVENTING OR TREATING CONDITIONS RELATED TO T CELL MEDIATED INTESTINAL DISORDERS” (The Regents of the University of Michigan, priority 2021, published 2024):

Experiments:
SDHA = biological target: T1, SDHA (Mus musculus, UniProt Q8K2B3+Q9CQA3+Q9CXV1+Q9CZB0); experiment: SDH enzyme staining of colon and ileum 12 h after oral gavage; assay type: in vivo, B6 WT mice; conditions: naive B6 WT, 12 h after administration
T1 construct: from tissue; host or cells: colon and ileum of naive B6 WT mice
Procedure: Hematopoietic cell transplantation (HCT): Splenic T cells from donors were enriched, and the BM was depleted of T cells by autoMACS (Miltenyi Biotec, Bergisch Gladbach, Germany) utilizing CD90.2 microbeads (#130-121-278, Miltenyi Biotec). WT B6, C3H.SW, Sdhaf1^−/−, Sdha^Δ/IEC , Irg1h−/−B6 and BALB/c animals were used as recipients and received 1,000 cGy (WT B6, Sdhaf1^−/−and Sdha^Δ/IEC) or 800 cGy (BALB/c) TBI on day −1, respectively, and 1×10^6 (C3H.SW→C57BL/B6 or C57BL/B6→BALB/c), 3×10^6 (BALB/c→C57BL/6, Sdhaf1^−/−, Sdha^Δ/IEC) CD90.2^+T cells along with 5×10^6 T-cell-depleted BM (TCD-BM) cells from either syngeneic or allogeneic donors on day 0. [B6Ly5.2→B6] and [B6 Ly5.2→Sdhaf1^−/−] animals received 900 cGy TBI on day −1 and were injected intravenously with 3×10^6 CD90.2^+T cells and 5×10^6 TCD-BM from either syngeneic B6 or BALB/c donors on day 0. For the chemotherapy conditioning model, B6 WT mice received busulfan (#B2635, 25 mg kg^−1 from day −7 to −4; Sigma-Aldrich) and cyclophosphamide (#C7397, 100 mg kg^−1 from day −3 to −2; Sigma-Aldrich) intraperitoneally, and 1×10^7 (BALB/c→C57BL/6) CD90.2^+T cells along with 1×10^7 TCD-BM cells from either syngeneic or allogeneic donors on day 0. For the no-irradiated model, unirradiated B6D2F1 mice were intravenously injected with 10×10^7 splenocytes from B6D2F1 or B6 donors. Animals received vehicle or dimethyl malonate (DMM, #136441, 0.5 g or 5g kg^−1, Sigma-Aldrich, St. Louis, MO, USA), dimethyl itaconate (DI, #09533, 0.25 g or 2.5g kg^−1, Sigma-Aldrich) or atpenin A5 (#11898, 0.9 μg or 9 μg kg^−1, Cayman Chemical, Ann Arbor, MI, USA) according to manufacturer's instructions by flexible 20-gauge, 1,5-in, intra-gastric gavage needle every other day from day 0. […]
Succinate dehydrogenase functional staining: Specimens were dissected from naïve, syngeneic and allogeneic WT B6 mice at 7 and 21 days post HCT. […] After mounting the slides, images were obtained using Olympus BX51M (Olympus, Japan) and the SDH activity was quantified using Image J (National Institutes of Health, Bethesda, […], USA).

[1] = test system: primary colonic epithelial cells (PCECs); experiment: 51Cr release cytotoxic killing assay, pre-treated PCECs as targets of primed T cells; assay type: cell-based, B6 WT mice; conditions: for cell death of pre-treated PCECs vs diluent: co-cultured with allo-primed T cells; for apoptosis of pre-treated PCECs: cultured with syngeneic T cells
[2] = test system: GI GVHD in B6 WT recipients; assay type: in vivo; conditions: for histopathological GVHD severity in the colon and ileum / histopathological GVHD severity in the liver, skin, and lungs: allogeneic recipients, 7 days post HCT; for clinical GVHD severity of allogeneic mice vs vehicle / survival of allogeneic mice vs vehicle / survival of syngeneic mice: gavage every other day from day 0 post HCT
Procedure: Hematopoietic cell transplantation (HCT): Splenic T cells from donors were enriched, and the BM was depleted of T cells by autoMACS (Miltenyi Biotec, Bergisch Gladbach, Germany) utilizing CD90.2 microbeads (#130-121-278, Miltenyi Biotec). WT B6, C3H.SW, Sdhaf1^−/−, Sdha^Δ/IEC , Irg1h−/−B6 and BALB/c animals were used as recipients and received 1,000 cGy (WT B6, Sdhaf1^−/−and Sdha^Δ/IEC) or 800 cGy (BALB/c) TBI on day −1, respectively, and 1×10^6 (C3H.SW→C57BL/B6 or C57BL/B6→BALB/c), 3×10^6 (BALB/c→C57BL/6, Sdhaf1^−/−, Sdha^Δ/IEC) CD90.2^+T cells along with 5×10^6 T-cell-depleted BM (TCD-BM) cells from either syngeneic or allogeneic donors on day 0. [B6Ly5.2→B6] and [B6 Ly5.2→Sdhaf1^−/−] animals received 900 cGy TBI on day −1 and were injected intravenously with 3×10^6 CD90.2^+T cells and 5×10^6 TCD-BM from either syngeneic B6 or BALB/c donors on day 0. For the chemotherapy conditioning model, B6 WT mice received busulfan (#B2635, 25 mg kg^−1 from day −7 to −4; Sigma-Aldrich) and cyclophosphamide (#C7397, 100 mg kg^−1 from day −3 to −2; Sigma-Aldrich) intraperitoneally, and 1×10^7 (BALB/c→C57BL/6) CD90.2^+T cells along with 1×10^7 TCD-BM cells from either syngeneic or allogeneic donors on day 0. For the no-irradiated model, unirradiated B6D2F1 mice were intravenously injected with 10×10^7 splenocytes from B6D2F1 or B6 donors. Animals received vehicle or dimethyl malonate (DMM, #136441, 0.5 g or 5g kg^−1, Sigma-Aldrich, St. Louis, MO, USA), dimethyl itaconate (DI, #09533, 0.25 g or 2.5g kg^−1, Sigma-Aldrich) or atpenin A5 (#11898, 0.9 μg or 9 μg kg^−1, Cayman Chemical, Ann Arbor, MI, USA) according to manufacturer's instructions by flexible 20-gauge, 1,5-in, intra-gastric gavage needle every other day from day 0. The mice were randomly assigned to syngeneic, allogeneic or treatment groups in each experiment. No mice were excluded from analysis. No statistical methods were used to predetermine sample size. The investigators were not blinded to allocation during experiments and outcome assessment.
Systemic and histopathological analysis of GVHD: Survival after HCT was monitored daily and assessed the degree of clinical GVHD weekly, as described previously^64. Histopathological analysis of the liver, gastrointestinal (GI) tract, and lung, which are the primary GVHD target organs, was performed as described utilizing a semi-quantitative scoring system implemented in a blinded manner by a single pathologist (C.L.)^65. After scoring, the codes were broken, and the data compiled.

[3] = test system: primary colonic epithelial cells (PCECs); experiment: In vitro allogeneic CTL assay, AnnexinV positive cells of Green CMFDA Dye positive PCECs; conditions: PCECs treated 0.2 mM for 2 hours
Procedure: PCECs were pre-treated with 5mM DMM, 0.5mM DI, 10nM atpenin A5 or vehicle for 3 hours.
Flow cytometry: Cells were re-suspended in 2% BSA in PBS and stained with the following antibodies and reagents; FITC-anti-CD326 (G8.8, #118208, 1:200), APC-anti-CD326 (G8.8, #118214, 1:200), DAPI, CellROX Deep Red (#C10491, 500 nM, Thermo Scientific), MitoSOX (#M36008, 5 μM, Thermo Scientific), JC-1 (#M34152, 2 μM, Thermo Scientific), 7-AAD (#420404, 1:100, BioLegend), Annexin V (#640947, 1:20, Biolegend), anti-CD16/CD32 antibody (BD Biosciences, 2.4G2), APC-anti-CD45.2 (#109814, 1:200, BioLegend), and CellTracker Green CMFDA Dye (#C7025, 1 μM, Invitrogen) according to manufacturer's protocol. Cells were run on Attune NxT flow cytometer (Thermo Scientific) and analyzed using FlowJo v10.2 (FlowJo LLC, Ashland, OR).

[4] = test system: isolated mitochondria of colon; experiment: ATP detection assay in isolated mitochondria from IECs; assay type: biochemical, mice; conditions: 21 days post HCT, after malonate treatment
Procedure: Mitochondria Isolation: Isolated IECs from syngeneic and allogeneic recipients in mitochondria isolation buffer (MIB) were disrupted using a glass homogenizer with 2-3 strokes. MIB was composed of 70 mM sucrose (#S0389, Sigma-Aldrich), 210 mM mannitol (#M9546, Sigma-Aldrich), 5 mM HEPES, 1 mM EGTA (#E0396, Sigma-Aldrich), 0.5% BSA, pH 7.2 and protease inhibitor cocktail (#78429, Sigma-Aldrich). Homogenate was centrifuged at 800 g for 10 min at 4° C. Following centrifugation, fat/lipid was carefully aspirated, and the remaining supernatant was decanted through 2 layers of cheesecloth to a separate tube and centrifuged twice at 8000 g for 15 min at 4° C. After removal of the light mitochondrial layer, the pellet was resuspended in MIB and centrifuged at 8500 g for 10 min. The final pellet was resuspended in a minimal volume of mitochondrial assay solution (MAS) and kept on ice. […] Total protein (mg/ml) was determined via Pierce BCA Protein Assay (#23225, Thermo Scientific). […] The ATP level was measured using the Cell Titer Glo 2.0 luminescence assay (#G9243, Promega, Madison, WI). Luminescence was measured for 500 ms using a SpectraMax M3 Microplate reader (Molecular Devices, San Jose, CA).

B6 WT mice, colonic IECs = experiment: DSS chemical induced colitis model; assay type: in vivo; conditions: twelve days after DSS treatment, vs control animals
Procedure: Colitis models: For the DSS colitis model, animals were provided with drinking water containing 2.5-3% DSS (#0216011010. MP Biomedicals, Santa Ana, CA) for 7 days. Mice were injected with 100 μg of anti-CTLA-4 mAb (#BE0164, clone 9D9, Bio X Cell, West Lebanon, NH) or isotype control (#BE0086, MCP-11, Bio X Cell) twice (3 and 1 day before DSS administration). For the T-cell transfer induced colitis model, isolated splenic T cells from WT B6 and Prf^−/−mice were stained with DAPI (#422801, 1 μM, Biolenged), APC-Cy7 anti-CD4 (#560246, GK1.5, 1:100, BD Biosciences, San Jose, CA), APC anti-CD25 (#101910, 3C7, 1:100, Biolegend), FITC anti-CD44 (#103006, IM7, 1:100, Biolegend) and PE anti-CD45RB (#103308, C363-16A, 1:100, Biolegend). CD4^+CD25^−CD44^−CD45RB^hi cells were sorted with the MoFlo Astrios cell sorter (Beckman Coulter, Indianapolis, IN) and intraperitoneally injected into Rag-1^−/−recipients.
Fluorescent immunohistochemistry staining: Sections were prepared as mentioned in the SDH functional staining method. […] SDH levels were quantified and measured in intensity from Cy3 positive epithelial cells using Image J. For primary mice colonic epithelial cells, cells were spun down and put on coverslips. […]
Succinate quantification: Isolated IECs were collected, processed and analysed using the Succinate Assay Kit (#ab204718, Abcam) according to the manufacturer's protocol.

[5] = test system: primary colonic epithelial cells (PCECs); experiment: Apoptosis of pre-treated PCECs induced by perforin and Granzyme B; assay type: cell-based, C57BL/6 mice; conditions: pre-treated 2 hours, then perforin and Granzyme B 4 hours
Procedure: Cell culture: C57BL/6 primary colonic epithelial cells (PCEC, C57-6047, Cell Biologics, Chicago, IL) were cultured in compete epithelial growth medium supplemented with insulin-transferrin-selenium, epidermal growth factor, glutamine, antibiotics, antimycotics and fecal bovine serum (#M6621, Cell Biologics). Cells were routinely tested for mycoplasma contamination using MycoAlert (#LT07-318, Lonza, Switzerland). Cells were treated with Mouse active perforin (#APB317Mu01, Cloud-Clone Corp., Katy, TX) and recombinant mouse Granzyme B (#140-03, PeproTech, Rocky Hill, NJ) for 4 to 6 hours in indicated concentrations following manufacturer's recommendations. Cells were incubated with GDF-15 (#8944-GD-025, 500 pg/mL, R&D Systems, Minneapolis, MN), Tiron (#172553, 10 mM, Sigma-Aldrich, St. Louis, MO), Trolox (#648471, 0.5 mM, Sigma-Aldrich), 4-Octyl itaconate (#SML2338, 0.1 mM, Sigma-Aldrich) and NAD (#N8285, 1 mM, Sigma-Aldrich).

T1 sequence (Q8K2B3 43-664): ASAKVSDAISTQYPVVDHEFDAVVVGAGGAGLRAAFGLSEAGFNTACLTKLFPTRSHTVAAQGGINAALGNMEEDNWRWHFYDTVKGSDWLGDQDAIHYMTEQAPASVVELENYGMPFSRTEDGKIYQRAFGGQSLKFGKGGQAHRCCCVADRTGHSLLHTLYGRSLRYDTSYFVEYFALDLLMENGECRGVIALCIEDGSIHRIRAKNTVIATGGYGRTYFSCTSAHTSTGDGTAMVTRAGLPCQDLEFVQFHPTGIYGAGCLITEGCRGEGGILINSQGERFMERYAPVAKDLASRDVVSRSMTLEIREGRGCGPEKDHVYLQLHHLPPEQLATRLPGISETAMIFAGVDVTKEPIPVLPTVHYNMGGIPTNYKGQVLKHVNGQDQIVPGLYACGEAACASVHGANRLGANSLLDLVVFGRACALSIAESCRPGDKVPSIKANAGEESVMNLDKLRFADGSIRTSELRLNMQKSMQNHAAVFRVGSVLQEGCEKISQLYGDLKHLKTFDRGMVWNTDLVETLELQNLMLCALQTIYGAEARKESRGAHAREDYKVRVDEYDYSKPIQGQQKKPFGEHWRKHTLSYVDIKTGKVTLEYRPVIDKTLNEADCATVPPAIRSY
T1 sequence (Q9CQA3 31-282): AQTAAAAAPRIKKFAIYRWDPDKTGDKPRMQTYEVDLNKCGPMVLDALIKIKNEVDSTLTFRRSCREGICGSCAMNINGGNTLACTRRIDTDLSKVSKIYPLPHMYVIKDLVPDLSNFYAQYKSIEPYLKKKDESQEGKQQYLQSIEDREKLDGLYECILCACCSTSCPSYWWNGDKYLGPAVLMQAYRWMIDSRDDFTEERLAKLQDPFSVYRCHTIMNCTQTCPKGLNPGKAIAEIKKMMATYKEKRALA
T1 sequence (Q9CZB0 30-169): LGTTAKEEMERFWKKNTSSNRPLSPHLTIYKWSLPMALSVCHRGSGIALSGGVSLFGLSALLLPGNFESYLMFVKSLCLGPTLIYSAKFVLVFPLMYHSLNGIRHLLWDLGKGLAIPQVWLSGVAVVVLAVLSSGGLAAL
T1 sequence (Q9CXV1 57-159): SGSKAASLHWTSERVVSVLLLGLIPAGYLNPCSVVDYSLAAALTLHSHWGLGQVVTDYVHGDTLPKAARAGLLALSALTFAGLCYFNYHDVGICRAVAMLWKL

Question: For `C=C(CC(=O)OC)C(=O)OC` [itaconate, dimethyl itaconate], which “SDHA function (SDH enzymatic staining)” value (SDHA) is on record?
Answer: The value was “inhibited SDHA function”.

Question: What about the “cell death of pre-treated PCECs vs diluent” value [1] of the same molecule?
Answer: The value was “significantly higher levels of cell death”.

Question: And the “apoptosis of pre-treated PCECs” value [1]?
Answer: The value was “no increase in apoptosis”.

Question: And the “histopathological GVHD severity in the colon and ileum” value [2]?
Answer: The value was “increased GVHD severity”.

Question: What about the “histopathological GVHD severity in the liver, skin, and lungs” value [2] of the same molecule?
Answer: Its value is “not in the liver, skin, and lungs”.

Question: And the “clinical GVHD severity of allogeneic mice vs vehicle” value [2]?
Answer: Its value is “more severe GVHD symptoms”.

Question: What about the “survival of allogeneic mice vs vehicle” value [2] of the same molecule?
Answer: Its value is “died significantly faster”.

Question: `C=C(CC(=O)OCCCCCCCC)C(=O)O` [4-octyl itaconate, 4-Octyl itaconate] was tested. Which “susceptibility to T cell mediated cytotoxicity” value [3] did it give?
Answer: The value was “enhance susceptibility to T cell mediated cytotoxicity”.

Question: What does the source list for `COC(=O)CC(=O)OC` [malonate, dimethyl malonate]?
Answer: SDHA function (SDH enzymatic staining) (SDHA): inhibited SDHA function; ATP production, difference between mitochondria from allogeneic and syngeneic/naive animals [4]: difference diminished; cell death of pre-treated PCECs vs diluent [1]: significantly higher levels of cell death; apoptosis of pre-treated PCECs [1]: no increase in apoptosis; histopathological GVHD severity in the colon and ileum [2]: increased GVHD severity; histopathological GVHD severity in the liver, skin, and lungs [2]: not in the liver, skin, and lungs; clinical GVHD severity of allogeneic mice vs vehicle [2]: more severe GVHD symptoms; survival of allogeneic mice vs vehicle [2]: died significantly faster; survival of syngeneic mice [2]: survived

Question: How did the “SDHA levels in colonic IECs” value (B6 WT mice, colonic IECs) turn out when dextran sulfate sodium [DSS] was run?
Answer: Its value is “similar”.

Question: What about the “succinate levels in colonic IECs” value (B6 WT mice, colonic IECs) of the same molecule?
Answer: The value was “similar”.

Question: What does the source list for `COc1[nH]c(=O)c(C(=O)[C@@H](C)C[C@H](C)[C@@H](Cl)CCl)c(O)c1OC` [atpenin A5]?
Answer: SDHA function (SDH enzymatic staining) (SDHA): inhibited SDHA function; clinical GVHD severity of allogeneic mice vs vehicle [2]: more severe GVHD symptoms; survival of allogeneic mice vs vehicle [2]: died significantly faster; survival of syngeneic mice [2]: survived

Question: Which “apoptosis of PCECs induced by GranzymeB and perforin” value [5] does the source give for `O=S(=O)(O)c1cc(O)c(O)c(S(=O)(=O)O)c1` [Tiron] here?
Answer: The value was “did not reduce apoptosis”.

Question: Which “apoptosis of PCECs induced by GranzymeB and perforin” value [5] does the source give for `Cc1c(C)c2c(c(C)c1O)CCC(C)(C(=O)O)O2` (stereo not shown) [Trolox] here?
Answer: Its value is “did not reduce apoptosis”.
